Data from PMC12257540, “From Inhibitors to PET: SAR-Based Development of [^18F]SK60 for mIDH1 Imaging” (Journal of Medicinal Chemistry, 2025).

Tests used:
[1] = logD7.4 by shake-flask method (n-octanol/PBS); assay type: physicochemical; details: n-octanol/PBS pH 7.4, n = 4
Experimental: The logD 7.4 value of [ ^ 18 F]-SK60 was experimentally determined by the conventional shake-flask method using n-octanol and PBS as the partition system.
The two phases were presaturated with each other. A solution of the radiotracer (10 μL, 1.1 MBq) was added to a 15 mL plastic centrifuge tube containing n-octanol (3 mL) and PBS (3 mL). The tube was vortexed for 3 min and centrifuged at 3500 rpm for 5 min (Anke TDL80–2B, China). […] The logD 7.4 was determined as the ratio of cpm/mL of the n-octanol layer to that of the buffer layer. Samples from the n-octanol layer were redistributed until consistent distribution coefficient values were obtained. The measurement was carried out in triplicate and repeated three times.

[2] = PET-based biodistribution in naïve mice
Experimental: (§1) For the time of the experiments, female CD-1 mice (n = 4; 8–10 weeks; 37–40 g) were kept in a dedicated climatic chamber with free access to water and food under a 12:12 h dark: light cycle at a constant temperature (24 °C). The animals were anesthetized (Anaesthesia Unit U-410, agntho’s, Lidingö, Sweden) with isoflurane (2.0%, 300 mL/min) delivered in a 20% oxygen/80% air mixture (Gas Blender 100 Series, MCQ instruments, Rome, Italy) and their body temperature maintained at 37 °C with a thermal bed system. […] Each PET image was corrected for random coincidences, dead time, scatter, and attenuation (AC) based on a whole body (WB) MR scan. The reconstruction parameters for the list mode data were 3D-ordered subset expectation maximization (OSEM), 4 iterations, 6 subsets, energy window: 400–600 keV, coincidence mode: 1–5, ring difference: 81. The PET data were collected by a continuous WB scan during the entire investigation. […] The brain region was identified using the mouse brain atlas template Ma-Benveniste-Mirrione-FDG. The activity data are expressed as the SUVmean of the overall ROI.

P-gp efflux transporter = P-gp efflux transporter (Mus musculus, UniProt P21447); assay: Efflux transporter P-gp substrate study (PET, cyclosporine A pretreatment); details: cyclosporine A 50 mg/kg i.v. 30 min before radioligand
Experimental: To investigate the role of P-gp, mice were treated with cyclosporine A, an inhibitor of the P-gp efflux transporter.
as §1

[3] = Ex vivo biodistribution in naïve mice; set-up: species or system CD-1 mice; details: i.v.
Experimental: [ ^ 18 F]-SK60 (151 ± 37.0 kBq) diluted in 200 μL of sterile isotonic saline was injected into the tail vein of restrained, awake mice. The animals were anesthetized with isoflurane at 5 (n = 2), 15 (n = 1–2), 30 (n = 3), and 60 (n = 3) min after injection; blood was collected from the retro-orbital plexus with a heparinized glass Pasteur pipet, and the anesthetized animal was sacrificed by cervical dislocation. Blood plasma was obtained by centrifugation of the whole blood (8000 rpm, 4 °C, 2 min). […] From the measured data, the uptake of the activity in the different tissues and organs at the different time points p.i. was calculated as a percentage of injected dose per gram of tissue (% ID/g) and standardized uptake values (SUV).

[4] = system: IDH1R132H-U251 cells (target-positive) and IDH1-U251 cells (target-negative); assay: Real-time radioligand binding (LigandTracer) to live U251 cells; set-up: species or system Human; details: room temperature, medium without or with 5 % BSA
Experimental: Real-time radioligand binding
Real-time radioligand binding using LigandTracer®
The LigandTracer (LigandTracer Yellow, Ridgeview Instruments AB, Uppsala, Sweden) system allows assessment of binding kinetics (association rate constant ka and dissociation rate constant kd) and therefore dissociation constant (KD).
Briefly, target-positive/-negative cells are seeded to different quadrants of a petri dish (Thermo Scientific Nunclon Delta #150350). Here, approximately 5x10^4 target-positive cells (IDH1R132H-U251 cells) and target-negative cells (IDH1-U251 cells) were seeded in a ~20 mm round spot (0.5 mL of a solution of 1x10^5 cells/mL), three days before the experiment. […]
The culture medium is removed and replaced with 3 mL CO2-independent medium (Gibco #18045088, ThermoFisher Germany) without or with bovine serum albumin (BSA) (5 %; #3737.3, Carl Roth GmbH, Karlsruhe, Germany). In the instrument, the dish rotates on an inclined base, where cells in medium (3 mL) are located on one side, while radioactivity is detected on the opposite side. This allows continuous measurements of two or more alternating parts of the dish for bound radioactivity (e.g. target-positive) against background (e.g. no cells) or target-negative cells. […]
Data was acquired in decay-corrected counts per second (CPS) and subsequently analyzed using TraceDrawer (1.9.2, Ridgeview Instruments AB, Uppsala, Sweden). […]

IDH1R132H–U251 cells = assay: In vitro cell uptake of [18F]SK60 in IDH1R132H-U251 cells; assay type: cell-based, Human; details: 240 min incubation
Experimental: Human U251 glioblastoma cells, stably transfected and overexpressing either wild-type IDH1 (IDH1-U251) or IDH1R132H (IDH1R132H–U251), were obtained from Jaqueline Kessler and Dirk Vordermark (Department of Radiotherapy, Martin Luther University Halle-Wittenberg, Halle/Saale, Germany). Cells were grown in RPMI 1640 medium (10% FCS), supplemented with puromycin, to ensure the cultivation of transfected cells only.
The IDH1-U251 and IDH1R132H–U251 cells were seeded at 4,00,000 cells/mL in a 24-well cell culture plate 1 day before the experiment. The medium was replaced by 400 μL/well, and 4 μL of a 100-x stock solution of the respective inhibitor in 10% DMSO or vehicle (10% DMSO) was added about 2 h before the experiment. The experiment was started with the addition of 100 μL of [ ^ 18 F]-SK60 (0.477 ± 0.002 MBq/mL; 4.86 ± 0.33 nM) diluted in cell culture medium per well, and the well plates were incubated in a humidified-air atmosphere incubator containing 5% CO2 at 37 °C for various times. The incubation was stopped by aspiration of the supernatant and washing the cell layers twice with prechilled PBS (500 μL/well). […] The concentrations of surface-bound and internalized activities per well were calculated as a percentage of the applied dose per well and normalized to the protein concentration per well (% AD/μg protein). […]

Sequence of P-gp efflux transporter (P21447 whole entry): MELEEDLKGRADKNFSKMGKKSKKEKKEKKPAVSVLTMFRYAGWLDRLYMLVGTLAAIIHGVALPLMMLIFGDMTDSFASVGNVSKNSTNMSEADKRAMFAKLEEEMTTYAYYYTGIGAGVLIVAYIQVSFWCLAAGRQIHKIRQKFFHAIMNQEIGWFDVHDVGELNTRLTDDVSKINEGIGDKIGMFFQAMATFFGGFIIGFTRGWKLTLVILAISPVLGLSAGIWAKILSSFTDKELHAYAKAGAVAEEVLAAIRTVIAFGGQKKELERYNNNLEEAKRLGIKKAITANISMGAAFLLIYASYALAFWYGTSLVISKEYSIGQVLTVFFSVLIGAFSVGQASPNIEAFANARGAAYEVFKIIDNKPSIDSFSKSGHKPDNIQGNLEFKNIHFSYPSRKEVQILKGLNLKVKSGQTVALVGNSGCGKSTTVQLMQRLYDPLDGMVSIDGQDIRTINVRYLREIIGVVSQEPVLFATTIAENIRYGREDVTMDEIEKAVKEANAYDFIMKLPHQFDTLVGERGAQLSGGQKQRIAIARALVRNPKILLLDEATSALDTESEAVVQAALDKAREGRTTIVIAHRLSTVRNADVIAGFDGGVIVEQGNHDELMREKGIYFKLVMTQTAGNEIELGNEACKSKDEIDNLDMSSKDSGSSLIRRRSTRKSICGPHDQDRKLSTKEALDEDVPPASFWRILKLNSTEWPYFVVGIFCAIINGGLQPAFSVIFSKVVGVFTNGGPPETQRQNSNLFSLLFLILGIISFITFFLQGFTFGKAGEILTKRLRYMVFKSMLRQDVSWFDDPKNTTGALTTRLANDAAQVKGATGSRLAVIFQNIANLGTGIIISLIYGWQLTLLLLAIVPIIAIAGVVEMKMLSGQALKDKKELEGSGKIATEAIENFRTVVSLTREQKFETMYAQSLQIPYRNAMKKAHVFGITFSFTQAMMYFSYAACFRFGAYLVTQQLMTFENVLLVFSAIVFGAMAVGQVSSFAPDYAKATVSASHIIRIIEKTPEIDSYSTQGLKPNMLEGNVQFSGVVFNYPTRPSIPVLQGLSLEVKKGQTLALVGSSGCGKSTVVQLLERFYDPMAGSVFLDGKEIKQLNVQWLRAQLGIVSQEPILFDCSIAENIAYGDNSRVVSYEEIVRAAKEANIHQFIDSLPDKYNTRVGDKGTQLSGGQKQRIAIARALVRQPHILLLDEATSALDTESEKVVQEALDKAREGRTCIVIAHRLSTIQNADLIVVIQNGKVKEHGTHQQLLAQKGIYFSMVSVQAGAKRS

Cc1cccc(NC(=O)c2nn(Cc3ccc([18F])cc3)c3c2CN(C(=O)c2ccc[nH]2)CC3(C)C)c1 [[18F]SK60] gave a logD [1] of 2.3 ± 0.5, an accumulation in gallbladder ([2]; PET, gallbladder, 30 min, n = 2) of 60 SUVmean and an accumulation in liver ([2]; PET, liver, 30 min, n = 2) of 1.6 SUVmean. The brain uptake ([2]; brain, 15 min p.i.) was ~0.3 SUVmean, the “increase of brain uptake after cyclosporine A compared to vehicle” value (P-gp efflux transporter) was “approximately 2.5 fold” and the “activity in kidneys and bladder” value ([3]; kidneys and bladder, 60 min p.i.) was < 1 SUVmean. For the same compound, the accumulation in liver ([3]; liver, 5 min p.i.) was ~7 SUVmean, the “accumulation in small intestine” value ([3]; small intestine, 60 min p.i.) was ~13 SUVmean and the “real-time radioligand binding to live cells” value [4] was “Reliable binding of [18F]SK60 could not be observed”. For the same compound, the internalized radioligand (IDH1R132H–U251 cells) was 0.089 ± 0.02 % AD/μg protein.
